In patent US9770026B2, “Substituted pyrimidine compound and uses thereof” (Shenyang Sinochem Agrochemicals R&D Co., Ltd., priority 2012, dated 2017):

tested on: Green peach aphids (Myzus Persicae Sulzer); test: bioactivity test against green peach aphid, airbrush foliar spray; type: in vivo; conditions: 100 ppm, death rate after 48 hrs
Procedure: (§1) Compounds were dissolved in mixed solvent (acetone:methanol=1:1), and diluted to required concentration with water containing 0.1% of tween 80.
(§2) Diamond back moth, armyworm, peach aphid and carmine spider mite were used as targets and the method of spraying by airbrush was used for determination of insecticidal biassays.
Method: Filter papers were put in culture dishes (Diameter=6 cm), and water was dripped on filter papers for preserving moisture. Green peach aphids (Myzus Persicae Sulzer) were maintained on cabbage. Leaves (Diameter=3 cm) of approximately 15-30 aphids were put in the culture dishes. Bioactivity tests were used the method of Airbrush Foliar Spray, pressure=10 psi (0.7 kg/cm2), spray volume=0.5 mL. The studies were conducted at […] 25±1 C in incubator cabinets with 60±5% RH. Survey the survival aphids after 48 hrs and calculate the death rates.

Structure (SMILES)	control (test results against green peach aphid) [%]
CCc1ncnc(NCCc2ccc(Oc3ccc(Cl)cc3Cl)nc2)c1Cl [III-262]	100

same assay, conditions: 600 ppm, death rate after 48 hrs

Structure (SMILES)	control (test results against green peach aphid) [%]
Cc1ncnc(NCCc2ccc(Oc3ncccc3C(F)(F)F)cc2)c1Cl [Compound I-929]	100
Cc1ncnc(NCCc2ccc(Oc3ccccc3Cl)nc2)c1Cl [III-5]	100
Cc1ncnc(NCCc2ccc(Oc3ccc(Cl)cc3Cl)nc2)c1Cl [III-82]	100
CCc1ncnc(NCCc2ccc(Oc3ccc(Cl)cc3Cl)nc2)c1Cl [III-262]	100
COc1ccc(Oc2ccc(CCNc3nc(C)nc(Cl)c3Cl)cn2)cc1 [III-2539]	100

tested on: carmine spider mite; test: bioactivity test against carmine spider mite, airbrush spray; type: in vivo; conditions: 600 ppm, mortality after 72 hrs
Procedure: as §1, §2
The method: Broadbean shoots with two true leaves in pot were taken, the healthy adults of carmine spider mite were inoculated to the leaves. The adults were counted and then sprayed with airbrush at the pressure of 0.7 kg/cm^2 and at dose of 0.5 ml. 3 replicates were set for each treatment. And then they were maintained in standard observation room. Scores were conducted and mortalities were calculated after 72 hrs.

Structure (SMILES)	control against carmine spider mite [%]
Cc1ncnc(NCCc2ccc(Oc3ncccc3C(F)(F)F)cc2)c1Cl [Compound I-929]	100
Cc1ncnc(NCCc2ccc(Oc3ccccc3Cl)nc2)c1Cl [III-5]	100
COc1ccc(Oc2ccc(CCNc3nc(C)nc(Cl)c3Cl)cn2)cc1 [III-2539]	100

tested on: corn rust; test: protectant activity in vivo against corn rust; conditions: 0.4 mg/L; protectant activity

Structure (SMILES)	control effect against corn rust (%)
CCc1ncnc(NCCc2ccc(Oc3ccc(Cl)cc3Cl)nc2)c1Cl [III-262]	60

same assay, conditions: 1.6 mg/L; protectant activity

Structure (SMILES)	control effect against corn rust (%)
CCc1ncnc(NCCc2ccc(Oc3ccc(Cl)cc3Cl)nc2)c1Cl [III-262]	90

same assay, conditions: 6.25 mg/L; protectant activity

Structure (SMILES)	control effect against corn rust (%)
CCc1ncnc(NCCc2ccc(Oc3ccc(Cl)cc3Cl)nc2)c1Cl [III-262]	90

same assay, conditions: 25 mg/L; protectant activity

Structure (SMILES)	control effect against corn rust (%)
CCc1ncnc(NCCc2ccc(Oc3ccc(Cl)cc3Cl)nc2)c1Cl [III-262]	100

same assay, conditions: 100 mg/L; protectant activity

Structure (SMILES)	control effect against corn rust (%)
CCc1ncnc(NCCc2ccc(Oc3ccc(Cl)cc3Cl)nc2)c1Cl [III-262]	100

same assay, conditions: 400 mg/L; protectant activity

Structure (SMILES)	control effect against corn rust (%)
CCc1ncnc(NCCc2ccc(Oc3ccc(Cl)cc3Cl)nc2)c1Cl [III-262]	100

same assay, conditions: 25 ppm

Structure (SMILES)	protectant activity against corn rust in vivo [%]
CCc1ncnc(NCCc2ccc(Oc3ccc(Cl)cc3Cl)nc2)c1Cl [III-262]	100

same assay, conditions: 100 ppm

Structure (SMILES)	protectant activity against corn rust in vivo [%]
CCc1ncnc(NCCc2ccc(Oc3ccc(Cl)cc3Cl)nc2)c1Cl [III-262]	100

same assay, conditions: 400 ppm

Structure (SMILES)	protectant activity against corn rust in vivo [%]
Cc1ncnc(NCCc2ccc(Oc3ncccc3C(F)(F)F)cc2)c1Cl [Compound I-929]	100
Cc1ncnc(NCCc2ccc(Oc3ccc(Cl)cc3Cl)nc2)c1Cl [III-82]	100
CCc1ncnc(NCCc2ccc(Oc3ccc(Cl)cc3Cl)nc2)c1Cl [III-262]	100
COc1ccc(Oc2ccc(CCNc3nc(C)nc(Cl)c3Cl)cn2)cc1 [III-2539]	100

tested on: wheat powdery mildew; test: protectant activity in vivo against wheat powdery mildew; conditions: 400 ppm

Structure (SMILES)	protectant activity against wheat powdery mildew in vivo [%]
Cc1ncnc(NCCc2ccc(Oc3ncccc3C(F)(F)F)cc2)c1Cl [Compound I-929]	100
Cc1ncnc(NCCc2ccc(Oc3ccccc3Cl)nc2)c1Cl [III-5]	100
Cc1ncnc(NCCc2ccc(Oc3ccc(Cl)cc3Cl)nc2)c1Cl [III-82]	100
CCc1ncnc(NCCc2ccc(Oc3ccc(Cl)cc3Cl)nc2)c1Cl [III-262]	100

tested on: cucumber downy mildew; test: protectant activity in vivo against cucumber downy mildew; conditions: 12.5 mg/L; protectant activity

Structure (SMILES)	control effect against cucumber downy mildew (%)
Cc1ncnc(NCCc2ccc(Oc3ccc(Cl)cc3Cl)nc2)c1Cl [III-82]	98
COc1ccc(Oc2ccc(CCNc3nc(C)nc(Cl)c3Cl)cn2)cc1 [III-2539]	85

same assay, conditions: 25 mg/L; protectant activity

Structure (SMILES)	control effect against cucumber downy mildew (%)
Cc1ncnc(NCCc2ccc(Oc3ccccc3Cl)nc2)c1Cl [III-5]	100
Cc1ncnc(NCCc2ccc(Oc3ccc(Cl)cc3Cl)nc2)c1Cl [III-82]	100
CCc1ncnc(NCCc2ccc(Oc3ccc(Cl)cc3Cl)nc2)c1Cl [III-262]	100
COc1ccc(Oc2ccc(CCNc3nc(C)nc(Cl)c3Cl)cn2)cc1 [III-2539]	100

same assay, conditions: 50 mg/L; protectant activity

Structure (SMILES)	control effect against cucumber downy mildew (%)
Cc1ncnc(NCCc2ccc(Oc3ccccc3Cl)nc2)c1Cl [III-5]	100
Cc1ncnc(NCCc2ccc(Oc3ccc(Cl)cc3Cl)nc2)c1Cl [III-82]	100
CCc1ncnc(NCCc2ccc(Oc3ccc(Cl)cc3Cl)nc2)c1Cl [III-262]	100
COc1ccc(Oc2ccc(CCNc3nc(C)nc(Cl)c3Cl)cn2)cc1 [III-2539]	100

same assay, conditions: 100 mg/L; protectant activity

Structure (SMILES)	control effect against cucumber downy mildew (%)
Cc1ncnc(NCCc2ccc(Oc3ccccc3Cl)nc2)c1Cl [III-5]	100
Cc1ncnc(NCCc2ccc(Oc3ccc(Cl)cc3Cl)nc2)c1Cl [III-82]	100
CCc1ncnc(NCCc2ccc(Oc3ccc(Cl)cc3Cl)nc2)c1Cl [III-262]	100
COc1ccc(Oc2ccc(CCNc3nc(C)nc(Cl)c3Cl)cn2)cc1 [III-2539]	100

same assay, conditions: 400 mg/L; protectant activity

Structure (SMILES)	control effect against cucumber downy mildew (%)
Cc1ncnc(NCCc2ccc(Oc3ccccc3Cl)nc2)c1Cl [III-5]	100
Cc1ncnc(NCCc2ccc(Oc3ccc(Cl)cc3Cl)nc2)c1Cl [III-82]	100
CCc1ncnc(NCCc2ccc(Oc3ccc(Cl)cc3Cl)nc2)c1Cl [III-262]	100
COc1ccc(Oc2ccc(CCNc3nc(C)nc(Cl)c3Cl)cn2)cc1 [III-2539]	100

same assay, conditions: 25 ppm

Structure (SMILES)	protectant activity against cucumber downy mildew in vivo [%]
Cc1ncnc(NCCc2ccc(Oc3ccccc3Cl)nc2)c1Cl [III-5]	100
Cc1ncnc(NCCc2ccc(Oc3ccc(Cl)cc3Cl)nc2)c1Cl [III-82]	100
CCc1ncnc(NCCc2ccc(Oc3ccc(Cl)cc3Cl)nc2)c1Cl [III-262]	100
COc1ccc(Oc2ccc(CCNc3nc(C)nc(Cl)c3Cl)cn2)cc1 [III-2539]	100

same assay, conditions: 50 ppm

Structure (SMILES)	protectant activity against cucumber downy mildew in vivo [%]
Cc1ncnc(NCCc2ccc(Oc3ccccc3Cl)nc2)c1Cl [III-5]	100
Cc1ncnc(NCCc2ccc(Oc3ccc(Cl)cc3Cl)nc2)c1Cl [III-82]	100
CCc1ncnc(NCCc2ccc(Oc3ccc(Cl)cc3Cl)nc2)c1Cl [III-262]	100
COc1ccc(Oc2ccc(CCNc3nc(C)nc(Cl)c3Cl)cn2)cc1 [III-2539]	100

same assay, conditions: 100 ppm

Structure (SMILES)	protectant activity against cucumber downy mildew in vivo [%]
Cc1ncnc(NCCc2ccc(Oc3ccccc3Cl)nc2)c1Cl [III-5]	100
Cc1ncnc(NCCc2ccc(Oc3ccc(Cl)cc3Cl)nc2)c1Cl [III-82]	100
CCc1ncnc(NCCc2ccc(Oc3ccc(Cl)cc3Cl)nc2)c1Cl [III-262]	100
COc1ccc(Oc2ccc(CCNc3nc(C)nc(Cl)c3Cl)cn2)cc1 [III-2539]	100

same assay, conditions: 400 ppm

Structure (SMILES)	protectant activity against cucumber downy mildew in vivo [%]
Cc1ncnc(NCCc2ccc(Oc3ccccc3Cl)nc2)c1Cl [III-5]	100
Cc1ncnc(NCCc2ccc(Oc3ccc(Cl)cc3Cl)nc2)c1Cl [III-82]	100
CCc1ncnc(NCCc2ccc(Oc3ccc(Cl)cc3Cl)nc2)c1Cl [III-262]	100
COc1ccc(Oc2ccc(CCNc3nc(C)nc(Cl)c3Cl)cn2)cc1 [III-2539]	100
